Source: PubChem BioAssay AID330 (DTP/NCI, 2004)
Several values for one entry are separate records, joined by “and”; a condition that tells them apart may be missing. Identical values can stand only once. Inconclusive results and toxic doses are left out. Rule for the calls: active = survival T/C of 150% or more; inactive = T/C below 125% in these data.

System: P388 leukemia ip, CD2F1 mice, survival T/C
Assay: NCI In Vivo Anticancer Drug Screen. Data for tumor model P388 Leukemia (intraperitoneal) in CD2F1 (CDF1) mice
Conditions: endpoint: median survival time, higher = longer survival
In short: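 Mice carrying the transplanted tumor received test compound or vehicle. Survival was recorded in each group, and the value is the treated-group measurement divided by that of the vehicle-treated control group.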

[1] = dose: 50.0 mg/kg/injection, schedule: Q01DX005 (ip), vehicle: Klucel (hydroxypropylcellulose) (HPC)
[2] = dose: 50.0 mg/kg/injection, schedule: Q01DX009 (ip), vehicle: saline
[3] = dose: 100.0 mg/kg/injection, schedule: Q01DX009 (ip), vehicle: saline
[4] = dose: 200.0 mg/kg/injection, schedule: Q01DX009 (ip), vehicle: saline
[5] = dose: 60.0 mg/kg/injection, schedule: Q01DX005 (ip), vehicle: saline with Tween-80
[6] = dose: 120.0 mg/kg/injection, schedule: Q01DX005 (ip), vehicle: saline with Tween-80

Measured: T/C

S=C1CCCCCN1
inactive: dose: 12.5 mg/kg/injection, schedule: Q01DX005 (ip), vehicle: Klucel (hydroxypropylcellulose) (HPC) 107 % of control | dose: 25.0 mg/kg/injection, schedule: Q01DX005 (ip), vehicle: Klucel (hydroxypropylcellulose) (HPC) 100 % of control | [1] 103 % of control and 104 % of control

N=C(N)Cl
inactive: dose: 15.0 mg/kg/injection, schedule: Q01DX005 (ip), vehicle: saline 100 % of control | dose: 30.0 mg/kg/injection, schedule: Q01DX005 (ip), vehicle: saline 94 % of control | dose: 60.0 mg/kg/injection, schedule: Q01DX005 (ip), vehicle: saline 88 % of control

Cc1c(C2=NCC(C)S2)ccc(O)c1S(=O)(=O)O (configuration not stated)
inactive: [2] 92 % of control | [3] 92 % of control | [4] 101 % of control

CCN(CC)CCC(CNc1c2ccc(Cl)cc2nc2ccc(OC)cc12)c1ccccc1 (configuration not stated)
inactive: dose: 12.5 mg/kg/injection, schedule: Q01DX005 (ip), vehicle: saline with Tween-80 98 % of control | dose: 25.0 mg/kg/injection, schedule: Q01DX005 (ip), vehicle: saline with Tween-80 100 % of control | dose: 50.0 mg/kg/injection, schedule: Q01DX005 (ip), vehicle: saline with Tween-80 108 % of control and 115 % of control

C=C[C@]1(C)C=C2C(O)CC3C(C)(C)CCC[C@]3(CO)C2CC1 (some centres not stated)
inactive: [5] 100 % of control | [6] 97 % of control | dose: 240.0 mg/kg/injection, schedule: Q01DX005 (ip), vehicle: saline with Tween-80 96 % of control

CCN(CC)Cc1c(C)[nH]c2cc3c(cc2c1=O)CCCC3
inactive: dose: 60.0 mg/kg/injection, schedule: Q01DX005 (ip), vehicle: Klucel (hydroxypropylcellulose) (HPC) 98 % of control | dose: 120.0 mg/kg/injection, schedule: Q01DX005 (ip), vehicle: Klucel (hydroxypropylcellulose) (HPC) 90 % of control

CCCCCCCCCCCCCCCc1c(NC(C)(CC)[P+](=O)O)c(=O)n(C)n1C (configuration not stated)
inactive: dose: 6.25 mg/kg/injection, schedule: Q01DX009 (ip), vehicle: saline 112 % of control | dose: 12.5 mg/kg/injection, schedule: Q01DX009 (ip), vehicle: saline 100 % of control | [3] 101 % of control

CC(=O)OC1C(Br)C2CC1C1(Cl)C(=O)C(Cl)=C(Cl)C(=O)C21Cl (configuration not stated)
inactive: [2] 99 % of control | [3] 101 % of control | [4] 99 % of control

Nc1cnns1
inactive: dose: 11.25 mg/kg/injection, schedule: Q01DX009 (ip), vehicle: water 100 % of control | dose: 22.5 mg/kg/injection, schedule: Q01DX009 (ip), vehicle: water 102 % of control | dose: 45.0 mg/kg/injection, schedule: Q01DX009 (ip), vehicle: water 105 % of control | dose: 90.0 mg/kg/injection, schedule: Q01DX009 (ip), vehicle: water 119 % of control | dose: 180.0 mg/kg/injection, schedule: Q01DX009 (ip), vehicle: water 105 % of control

O=C(Nc1ccc(S(=O)(=O)F)cc1)/C(=C/c1ccc([N+](=O)[O-])cc1)c1ccccc1
inactive: [5] 102 % of control | [6] 97 % of control

COC(=O)C1(C(=O)O)ON1C(C)(C)C (configuration not stated)
inactive: [1] 100 % of control | dose: 100.0 mg/kg/injection, schedule: Q01DX005 (ip), vehicle: Klucel (hydroxypropylcellulose) (HPC) 100 % of control | dose: 200.0 mg/kg/injection, schedule: Q01DX005 (ip), vehicle: Klucel (hydroxypropylcellulose) (HPC) 99 % of control

O=C1CCC2C(=O)OCC12 (configuration not stated)
inactive: dose: 50.0 mg/kg/injection, schedule: Q04DX002 (ip), vehicle: saline 99 % of control | dose: 100.0 mg/kg/injection, schedule: Q04DX002 (ip), vehicle: saline 101 % of control | dose: 200.0 mg/kg/injection, schedule: Q04DX002 (ip), vehicle: saline 94 % of control | dose: 400.0 mg/kg/injection, schedule: Q04DX002 (ip), vehicle: saline 100 % of control

O
inactive: dose: 0.01 % in 0.5 ml injection vol, schedule: Q01DX009 (ip), vehicle: water 92 % of control | dose: 0.02 % in 0.5 ml injection vol, schedule: Q01DX009 (ip), vehicle: water 100 % of control and 95 % of control | dose: 0.04 % in 0.5 ml injection vol, schedule: Q01DX009 (ip), vehicle: water 105 % of control | dose: 0.08 % in 0.5 ml injection vol, schedule: Q01DX009 (ip), vehicle: water 100 % of control | dose: 100.0 mg/kg/injection, schedule: Q01DX009 (ip), vehicle: acetone 95 % of control | dose: 200.0 mg/kg/injection, schedule: Q01DX009 (ip), vehicle: acetone 90 % of control | dose: 400.0 mg/kg/injection, schedule: Q01DX009 (ip), vehicle: acetone 100 % of control | dose: 1:0.5 dilution, schedule: Q01DX005 (ip), vehicle: none 112 % of control | dose: 1:1.0 dilution, schedule: Q01DX005 (ip), vehicle: none 100 % of control | dose: 1:2.0 dilution, schedule: Q01DX005 (ip), vehicle: none 114 % of control
